Measurements as given in patent US20140328861A1, “Combination of CRTH2 Antagonist and a Proton Pump Inhibitor for the Treatment of Eosinophilic Esophagitis” (Atopix Therapeutics Limited, priority 2011, published 2014).

System: patients with active eosinophilic esophagitis (esophageal eosinophil load)
Experiment: 8 week randomized, double-blind, placebo-controlled study in patients with active eosinophilic esophagitis
Assay type: in vivo, human
Method: The study was a randomized, double-blind, placebo-controlled, single-center study of (5-fluoro-2-methyl-3-quinolin-2-ylmethyl-indo-1-yl)-acetic acid (OC000459) for 8 weeks in patients with active (≧20 eos/hpf and symptoms), corticosteroid-dependent, and/or -resistant eosinophilic esophagitis (EoE). The study compared patients taking 100 mg of OC000459 twice daily with patients taking a placebo twice daily. The study consisted of 26 patients with 14 patients taking OC000459 and 12 patients taking the placebo. Pre- and post-treatment disease-activity was assessed clinically, endoscopically, histologically, and via biomarkers. The primary endpoint was the reduction of the esophageal eosinophil load.
5. Free of all medications for EoE (including topical steroids) for at least 2 weeks prior to baseline and free of systemic steroids for at least 90 days before screening. A proton-pump inhibitor is allowed if required for treatment of secondary acid reflux.
After an 8-week treatment of active EoE with OC000459, the total mean eosinophil number decreased from 114.7 to 74.2 eos/hpf, whereas under placebo, no reduction was observed (from 102.8 to 99.4 eos/hpf).
A possible explanation for this is that acid reflux may be responsible for the eosinophilic inflammation in the distal esophagus which is consistent with reports that eosinophilia is reduced by PPIs in some patients with EoE (Molina-Infante et al., 2011). […] It is therefore proposed that the combination of CRTH2 antagonists with PPIs will be effective in the treatment of EoE by blocking both the allergic and acid reflux pathways. Three patients were treated with both OC000459 and esomeprazole, either 20 mg or 40 mg once a day.

Cc1c(Cc2ccc3ccccc3n2)c2cc(F)ccc2n1CC(=O)O [OC000459, (5-fluoro-2-methyl-3-quinolin-2-ylmethyl-indo-1-yl)-acetic acid]
effect on eosinophil load, proximal versus distal esophagus (8 weeks, 100 mg twice daily, compared to placebo (FIG. 1)): more pronounced in the proximal upper esophagus than in the distal esophagus
eosinophilic load in the distal esophagus (patients with EoE, 8 weeks): not
eosinophilic load in the proximal esophagus (patients with EoE, 8 weeks): reduces eosinophilic load
total mean eosinophil number, after 8-week treatment (patients with active EoE, 100 mg twice daily, 8 weeks): 74.2 eos/hpf
total mean eosinophil number, before treatment (patients with active EoE, baseline, 100 mg twice daily group): 114.7 eos/hpf
